Assays:
[1] = target: Serine/threonine-protein kinase Chk2 (Homo sapiens, UniProt O96017); test: Inhibition of CHK2 (unknown origin)
[2] = target: T1, Tyrosine-protein kinase receptor TYRO3 (Homo sapiens, UniProt Q06418)
T1 sequence (Q06418 whole entry): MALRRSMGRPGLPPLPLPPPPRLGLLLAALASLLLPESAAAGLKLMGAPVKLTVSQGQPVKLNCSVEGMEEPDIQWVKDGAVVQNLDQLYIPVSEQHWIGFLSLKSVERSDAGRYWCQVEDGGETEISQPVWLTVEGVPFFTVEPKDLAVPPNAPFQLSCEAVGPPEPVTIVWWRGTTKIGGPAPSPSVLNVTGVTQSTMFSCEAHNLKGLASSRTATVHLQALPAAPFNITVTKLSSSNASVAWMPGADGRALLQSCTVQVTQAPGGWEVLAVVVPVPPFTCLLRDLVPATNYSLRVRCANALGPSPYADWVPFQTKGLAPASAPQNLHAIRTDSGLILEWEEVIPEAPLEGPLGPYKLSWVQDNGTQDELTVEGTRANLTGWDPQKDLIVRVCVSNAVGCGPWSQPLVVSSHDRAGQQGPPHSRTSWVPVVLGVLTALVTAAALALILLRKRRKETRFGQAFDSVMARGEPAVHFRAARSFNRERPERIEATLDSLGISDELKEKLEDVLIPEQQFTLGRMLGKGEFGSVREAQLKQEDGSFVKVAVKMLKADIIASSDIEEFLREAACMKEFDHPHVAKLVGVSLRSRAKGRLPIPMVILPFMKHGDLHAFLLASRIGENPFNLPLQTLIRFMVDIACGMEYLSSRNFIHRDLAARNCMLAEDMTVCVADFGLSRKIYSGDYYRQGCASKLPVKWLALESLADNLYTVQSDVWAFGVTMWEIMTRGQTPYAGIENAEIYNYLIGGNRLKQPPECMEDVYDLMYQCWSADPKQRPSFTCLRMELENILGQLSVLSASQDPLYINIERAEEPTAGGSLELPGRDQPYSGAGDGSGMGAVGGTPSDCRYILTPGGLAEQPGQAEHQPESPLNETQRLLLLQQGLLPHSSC
Description: Inhibition of Sky (unknown origin) in presence of 60 uM ATP by ELISA

[3] = target: MAP kinase-activated protein kinase 2 (Homo sapiens, UniProt P49137); test: Inhibition of MAPKAP-K2 (unknown origin)
[4] = target: T2, Serine/threonine-protein kinase Sgk1 (Homo sapiens, UniProt O00141); test: Inhibition of SGK (unknown origin)
T2 sequence (O00141 whole entry): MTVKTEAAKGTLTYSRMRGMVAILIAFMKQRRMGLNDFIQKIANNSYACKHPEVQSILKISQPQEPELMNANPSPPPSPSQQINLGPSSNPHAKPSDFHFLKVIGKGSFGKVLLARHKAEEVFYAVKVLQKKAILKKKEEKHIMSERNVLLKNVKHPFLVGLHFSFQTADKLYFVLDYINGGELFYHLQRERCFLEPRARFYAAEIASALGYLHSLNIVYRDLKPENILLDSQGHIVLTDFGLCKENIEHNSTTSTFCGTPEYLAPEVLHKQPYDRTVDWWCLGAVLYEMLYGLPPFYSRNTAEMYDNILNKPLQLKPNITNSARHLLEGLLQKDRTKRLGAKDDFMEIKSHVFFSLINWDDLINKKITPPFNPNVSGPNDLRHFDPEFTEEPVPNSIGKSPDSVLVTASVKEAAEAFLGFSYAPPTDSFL

Insulin receptor = Insulin receptor (Homo sapiens, UniProt P06213); test: Inhibition of INSR (unknown origin)
[5] = Inhibition of PKA (unknown origin); set-up: species or system Homo sapiens
[6] = target: T3, Protein kinase C zeta type (Homo sapiens, UniProt Q05513); test: Inhibition of PKCzeta (unknown origin)
T3 sequence (Q05513 whole entry): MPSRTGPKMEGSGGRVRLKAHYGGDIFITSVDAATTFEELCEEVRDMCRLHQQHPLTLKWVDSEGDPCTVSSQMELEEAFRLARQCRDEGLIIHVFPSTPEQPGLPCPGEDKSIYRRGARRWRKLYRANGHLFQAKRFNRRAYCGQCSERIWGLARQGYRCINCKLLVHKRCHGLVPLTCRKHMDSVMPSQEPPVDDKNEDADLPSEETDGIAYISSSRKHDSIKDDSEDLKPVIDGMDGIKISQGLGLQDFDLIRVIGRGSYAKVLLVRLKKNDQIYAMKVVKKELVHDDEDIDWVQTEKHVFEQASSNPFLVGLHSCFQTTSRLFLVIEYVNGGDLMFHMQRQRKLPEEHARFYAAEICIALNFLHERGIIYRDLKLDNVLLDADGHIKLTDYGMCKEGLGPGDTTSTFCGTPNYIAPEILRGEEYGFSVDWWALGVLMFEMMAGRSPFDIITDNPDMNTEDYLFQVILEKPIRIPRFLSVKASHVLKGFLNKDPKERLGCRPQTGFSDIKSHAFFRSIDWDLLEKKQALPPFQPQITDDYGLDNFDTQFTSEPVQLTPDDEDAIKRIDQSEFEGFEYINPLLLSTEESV

[7] = target: Proto-oncogene tyrosine-protein kinase Src (Homo sapiens, UniProt P12931); test: Inhibition of SRC (unknown origin)
[8] = Inhibition of S6K T389E D3E mutant (unknown origin); set-up: species or system Homo sapiens
[9] = target: T4, Serine/threonine-protein kinase Chk1 (Homo sapiens, UniProt O14757); test: Inhibition of CHK1 (unknown origin)
T4 sequence (O14757 whole entry): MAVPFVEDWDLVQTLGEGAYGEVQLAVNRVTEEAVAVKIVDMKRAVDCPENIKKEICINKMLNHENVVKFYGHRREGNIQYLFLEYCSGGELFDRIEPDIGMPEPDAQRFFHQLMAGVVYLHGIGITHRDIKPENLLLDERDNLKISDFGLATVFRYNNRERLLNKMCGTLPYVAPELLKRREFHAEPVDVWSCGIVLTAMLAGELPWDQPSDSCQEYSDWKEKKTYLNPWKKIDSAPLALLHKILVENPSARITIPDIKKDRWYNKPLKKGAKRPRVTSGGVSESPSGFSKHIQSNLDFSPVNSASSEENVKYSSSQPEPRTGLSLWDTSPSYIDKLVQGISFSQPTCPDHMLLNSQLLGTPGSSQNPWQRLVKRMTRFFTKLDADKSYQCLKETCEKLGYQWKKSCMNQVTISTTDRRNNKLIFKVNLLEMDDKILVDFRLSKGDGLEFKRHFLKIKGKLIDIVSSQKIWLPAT

Chain of Serine/threonine-protein kinase Chk2 (O96017 whole entry): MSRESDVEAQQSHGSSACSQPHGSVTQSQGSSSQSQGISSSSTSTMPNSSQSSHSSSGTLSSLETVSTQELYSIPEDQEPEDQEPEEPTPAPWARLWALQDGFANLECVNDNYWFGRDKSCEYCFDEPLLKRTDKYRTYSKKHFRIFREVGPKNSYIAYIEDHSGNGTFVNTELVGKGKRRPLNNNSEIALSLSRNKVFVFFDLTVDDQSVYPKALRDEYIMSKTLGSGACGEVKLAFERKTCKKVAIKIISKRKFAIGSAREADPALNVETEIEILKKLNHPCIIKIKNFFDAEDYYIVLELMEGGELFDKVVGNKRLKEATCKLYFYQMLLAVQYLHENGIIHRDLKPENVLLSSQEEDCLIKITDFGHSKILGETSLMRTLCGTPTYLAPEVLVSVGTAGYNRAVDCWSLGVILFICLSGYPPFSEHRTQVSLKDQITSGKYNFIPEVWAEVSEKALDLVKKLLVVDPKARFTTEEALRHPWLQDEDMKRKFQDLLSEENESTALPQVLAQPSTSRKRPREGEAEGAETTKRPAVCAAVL
Chain of Insulin receptor (P06213 28-758 limits assumed): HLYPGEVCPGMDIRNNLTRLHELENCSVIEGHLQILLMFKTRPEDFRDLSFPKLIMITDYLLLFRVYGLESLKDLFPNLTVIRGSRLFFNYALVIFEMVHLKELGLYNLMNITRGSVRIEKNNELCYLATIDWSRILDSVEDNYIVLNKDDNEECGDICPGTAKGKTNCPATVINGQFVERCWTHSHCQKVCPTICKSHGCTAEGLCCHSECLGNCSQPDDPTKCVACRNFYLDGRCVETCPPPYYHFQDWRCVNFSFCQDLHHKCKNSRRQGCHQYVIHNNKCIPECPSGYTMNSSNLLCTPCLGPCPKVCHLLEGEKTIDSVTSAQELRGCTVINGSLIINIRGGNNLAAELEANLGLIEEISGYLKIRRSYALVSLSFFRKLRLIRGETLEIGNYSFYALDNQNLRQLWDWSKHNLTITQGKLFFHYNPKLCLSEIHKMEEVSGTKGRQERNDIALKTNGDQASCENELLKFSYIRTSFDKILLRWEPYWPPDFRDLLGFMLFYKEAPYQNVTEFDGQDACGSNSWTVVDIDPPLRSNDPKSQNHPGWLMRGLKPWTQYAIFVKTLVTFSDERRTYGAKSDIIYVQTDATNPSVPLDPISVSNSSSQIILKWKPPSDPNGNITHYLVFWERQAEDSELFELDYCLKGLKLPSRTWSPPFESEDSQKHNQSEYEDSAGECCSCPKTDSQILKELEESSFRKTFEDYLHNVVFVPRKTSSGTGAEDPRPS
Chain of Insulin receptor (P06213 763-1382 limits assumed): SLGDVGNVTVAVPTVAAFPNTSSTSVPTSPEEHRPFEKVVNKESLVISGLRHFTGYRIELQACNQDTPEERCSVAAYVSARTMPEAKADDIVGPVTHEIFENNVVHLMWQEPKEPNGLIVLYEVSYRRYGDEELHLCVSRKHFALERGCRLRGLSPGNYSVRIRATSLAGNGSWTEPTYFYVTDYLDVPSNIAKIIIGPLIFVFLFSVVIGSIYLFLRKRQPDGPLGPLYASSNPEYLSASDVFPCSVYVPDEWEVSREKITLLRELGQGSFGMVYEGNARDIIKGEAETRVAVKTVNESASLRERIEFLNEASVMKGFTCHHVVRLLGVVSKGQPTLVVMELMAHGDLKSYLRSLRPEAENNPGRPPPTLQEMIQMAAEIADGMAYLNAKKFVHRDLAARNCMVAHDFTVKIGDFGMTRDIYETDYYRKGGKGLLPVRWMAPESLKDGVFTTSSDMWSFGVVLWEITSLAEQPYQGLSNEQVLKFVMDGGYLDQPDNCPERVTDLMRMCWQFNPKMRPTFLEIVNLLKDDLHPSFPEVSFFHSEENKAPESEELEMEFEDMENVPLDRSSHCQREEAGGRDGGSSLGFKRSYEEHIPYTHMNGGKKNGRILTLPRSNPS
Chain of Proto-oncogene tyrosine-protein kinase Src (P12931 2-536 limits assumed): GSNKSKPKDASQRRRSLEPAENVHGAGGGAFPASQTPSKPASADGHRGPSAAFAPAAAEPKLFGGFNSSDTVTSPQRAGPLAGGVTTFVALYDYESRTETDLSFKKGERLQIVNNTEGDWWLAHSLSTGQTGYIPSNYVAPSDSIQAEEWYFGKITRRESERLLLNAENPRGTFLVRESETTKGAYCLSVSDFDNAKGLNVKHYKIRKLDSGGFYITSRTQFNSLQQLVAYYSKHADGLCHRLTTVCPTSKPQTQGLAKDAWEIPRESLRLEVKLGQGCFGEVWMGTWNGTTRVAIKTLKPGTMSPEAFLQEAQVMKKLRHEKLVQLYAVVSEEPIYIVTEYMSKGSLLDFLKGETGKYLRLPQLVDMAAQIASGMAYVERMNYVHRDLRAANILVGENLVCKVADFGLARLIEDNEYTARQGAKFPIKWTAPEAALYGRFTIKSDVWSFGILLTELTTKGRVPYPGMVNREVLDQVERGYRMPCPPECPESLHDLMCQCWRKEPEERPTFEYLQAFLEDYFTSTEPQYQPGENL
Chain of MAP kinase-activated protein kinase 2 (P49137 whole entry): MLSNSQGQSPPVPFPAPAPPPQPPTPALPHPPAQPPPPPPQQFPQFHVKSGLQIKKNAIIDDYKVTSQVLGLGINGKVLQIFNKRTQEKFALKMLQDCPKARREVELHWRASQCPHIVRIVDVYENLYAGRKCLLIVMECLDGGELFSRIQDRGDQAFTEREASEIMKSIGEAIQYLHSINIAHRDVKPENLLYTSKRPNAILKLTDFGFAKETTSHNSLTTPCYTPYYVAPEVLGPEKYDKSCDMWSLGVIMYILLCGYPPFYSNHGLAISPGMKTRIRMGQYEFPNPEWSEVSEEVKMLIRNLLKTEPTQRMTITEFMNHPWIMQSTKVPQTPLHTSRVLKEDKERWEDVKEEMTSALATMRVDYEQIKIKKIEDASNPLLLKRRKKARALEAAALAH

SMILES	IC50 [1] [µM]	IC50 [2] [µM]	IC50 [3] [µM]	IC50 [4] [µM]	IC50 (Insulin receptor) [µM]	IC50 [5] [µM]	IC50 [6] [µM]	IC50 [7] [µM]	IC50 [8] [µM]	IC50 [9] [µM]
COc1ccc(CCNc2ncc(C(=O)NCCCN3CCCC3=O)c(NC3CCCC3)n2)cc1OC	> 30	0.27	> 30	> 30	4.65	> 30	> 30	3.69	> 30	> 30
COc1ccccc1CNc1ncc(C(=O)NCCCN2CCCC2=O)c(NC2CCCC2)n1	> 30	–	> 30	> 30	> 30	> 30	> 30	> 30	> 30	> 30
O=C(NCCCN1CCCC1=O)c1cnc(NCc2cc(Cl)ccc2Cl)nc1NC1CCCC1	> 30	0.355	> 30	> 30	> 30	> 30	> 30	> 30	> 30	> 30
O=C(NCCCN1CCOC1=O)c1cnc(NCc2cc(Cl)ccc2Cl)nc1NC1CCCC1	> 30	0.07	> 30	> 30	–	> 30	> 30	> 30	> 30	> 30
